Assay results reported in patent publication US20050266509A1, “Interaction of NMDA receptor with protein tyrosine phosphatase” (AGY Therapeutics, Inc., priority 2003, published 2005).

Columns and labels:
Assay type in all cases: biochemical
YOP51 = YOP51 (Yersinia enterocolitica, UniProt P15273); test: FRET phosphatase assay, YOP51
Method: (§1) For the enzyme activity assay, 2.5 μl of compound, 12.5 μl of enzyme, and 10 μl of substrate (separated by air gaps) are added to columns 3 through 24 by the Biomek FX in a single dispense. After the dispense, the tips are washed with DMSO and water for re-use between each quadrant. Once the assay plates are set up, they are incubated at 27° C. for 45 minutes. Then 20 μl of detection buffer is added to stop the reaction and to allow the Europium antibody (Eu-Ab) and streptavidin-APC to bind to the substrate.
(§2) The plates are then placed in the plate reader, an Analyst HT. Excitation light at 360 nm is used to excite the Europium antibody with an emission at 620 nm. Fluorescence resonance energy transfer (FRET) from Eu-Ab to APC will only occur when they are in close proximity. Therefore, when an APC emission is observed at 665 nm the enzyme has been inhibited from removing the phosphate group from the substrate. The FRET assay is time-resolved (TR), where there is a delay between excitation light and collection of emission signals. This reduces the amount of stray light created by short-lived fluorescing molecules. The Analyst HT measures APC and Europium emission signals and calculates the ratio between the two intensities. Typical intensities for the Europium is ˜2000 and APC is ˜600.
(§3) The following compounds were tested by FRET against the listed phosphatases, and the IC50 were obtained. […]

T Cell = molecular target: T1, T Cell (Homo sapiens, UniProt P17706); test: FRET phosphatase assay, T Cell
T1 sequence (P17706 1-415): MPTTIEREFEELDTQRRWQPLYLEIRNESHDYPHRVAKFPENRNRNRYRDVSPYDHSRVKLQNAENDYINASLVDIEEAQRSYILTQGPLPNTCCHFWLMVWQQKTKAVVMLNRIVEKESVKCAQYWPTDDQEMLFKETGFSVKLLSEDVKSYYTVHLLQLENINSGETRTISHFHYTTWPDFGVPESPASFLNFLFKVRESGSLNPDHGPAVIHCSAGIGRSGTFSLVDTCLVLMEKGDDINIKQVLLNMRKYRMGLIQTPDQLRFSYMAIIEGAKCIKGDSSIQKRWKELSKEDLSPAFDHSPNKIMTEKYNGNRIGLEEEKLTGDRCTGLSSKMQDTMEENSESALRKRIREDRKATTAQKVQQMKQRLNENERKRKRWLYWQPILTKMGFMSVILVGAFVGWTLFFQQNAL
Method: as §1, §2, §3

CD45 = molecular target: T2, CD45 (Homo sapiens, UniProt P08575); test: FRET phosphatase assay, CD45
T2 sequence (P08575 26-1306): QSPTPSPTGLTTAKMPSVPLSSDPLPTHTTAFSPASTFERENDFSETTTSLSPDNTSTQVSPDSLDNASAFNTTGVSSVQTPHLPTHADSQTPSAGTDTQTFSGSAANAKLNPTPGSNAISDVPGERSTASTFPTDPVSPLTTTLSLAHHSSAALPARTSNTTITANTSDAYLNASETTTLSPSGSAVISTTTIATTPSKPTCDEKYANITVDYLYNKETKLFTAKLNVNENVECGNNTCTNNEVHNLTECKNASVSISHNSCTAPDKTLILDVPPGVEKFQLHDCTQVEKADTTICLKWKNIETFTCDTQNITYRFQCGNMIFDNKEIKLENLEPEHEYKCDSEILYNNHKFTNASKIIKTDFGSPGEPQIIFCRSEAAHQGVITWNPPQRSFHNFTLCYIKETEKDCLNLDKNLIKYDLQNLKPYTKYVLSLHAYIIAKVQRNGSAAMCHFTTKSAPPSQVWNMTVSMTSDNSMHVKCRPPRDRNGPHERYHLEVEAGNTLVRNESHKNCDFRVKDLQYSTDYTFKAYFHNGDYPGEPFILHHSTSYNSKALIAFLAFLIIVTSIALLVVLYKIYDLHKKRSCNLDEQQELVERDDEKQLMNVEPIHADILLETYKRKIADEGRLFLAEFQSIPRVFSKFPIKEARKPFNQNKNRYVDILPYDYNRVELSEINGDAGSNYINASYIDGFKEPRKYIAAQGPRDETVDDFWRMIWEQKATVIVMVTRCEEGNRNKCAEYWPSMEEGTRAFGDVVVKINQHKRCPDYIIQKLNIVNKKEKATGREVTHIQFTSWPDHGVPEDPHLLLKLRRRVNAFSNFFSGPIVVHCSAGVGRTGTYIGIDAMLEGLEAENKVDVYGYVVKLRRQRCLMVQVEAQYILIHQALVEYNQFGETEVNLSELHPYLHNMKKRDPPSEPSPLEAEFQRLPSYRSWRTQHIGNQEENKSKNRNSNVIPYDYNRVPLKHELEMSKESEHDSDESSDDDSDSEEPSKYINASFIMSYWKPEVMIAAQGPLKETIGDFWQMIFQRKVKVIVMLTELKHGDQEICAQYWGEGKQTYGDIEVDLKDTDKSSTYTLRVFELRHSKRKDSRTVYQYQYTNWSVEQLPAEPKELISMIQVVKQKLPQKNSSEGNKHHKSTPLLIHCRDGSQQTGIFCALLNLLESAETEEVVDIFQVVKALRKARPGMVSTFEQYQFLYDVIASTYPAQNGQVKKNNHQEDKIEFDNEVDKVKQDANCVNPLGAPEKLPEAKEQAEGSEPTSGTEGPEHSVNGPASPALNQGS
Method: as §1, §2, §3

PTPB = PTPB (Homo sapiens, UniProt P23467); test: FRET phosphatase assay, PTPB
Method: as §1, §2, §3

Chain of YOP51 (P15273 whole entry): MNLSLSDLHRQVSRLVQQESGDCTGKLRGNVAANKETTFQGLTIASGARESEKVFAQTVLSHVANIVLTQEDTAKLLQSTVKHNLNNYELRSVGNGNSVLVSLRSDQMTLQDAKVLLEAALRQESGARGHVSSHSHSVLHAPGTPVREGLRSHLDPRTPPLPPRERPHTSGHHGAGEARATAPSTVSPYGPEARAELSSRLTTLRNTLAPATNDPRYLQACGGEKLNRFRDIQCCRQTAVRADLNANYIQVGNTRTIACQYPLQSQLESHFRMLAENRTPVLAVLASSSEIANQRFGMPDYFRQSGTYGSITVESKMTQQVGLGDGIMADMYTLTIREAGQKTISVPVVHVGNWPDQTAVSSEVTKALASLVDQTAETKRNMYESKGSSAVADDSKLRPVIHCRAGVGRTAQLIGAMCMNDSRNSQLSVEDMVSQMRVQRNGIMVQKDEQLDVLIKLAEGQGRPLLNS
Chain of PTPB (P23467 1643-1997 limits assumed): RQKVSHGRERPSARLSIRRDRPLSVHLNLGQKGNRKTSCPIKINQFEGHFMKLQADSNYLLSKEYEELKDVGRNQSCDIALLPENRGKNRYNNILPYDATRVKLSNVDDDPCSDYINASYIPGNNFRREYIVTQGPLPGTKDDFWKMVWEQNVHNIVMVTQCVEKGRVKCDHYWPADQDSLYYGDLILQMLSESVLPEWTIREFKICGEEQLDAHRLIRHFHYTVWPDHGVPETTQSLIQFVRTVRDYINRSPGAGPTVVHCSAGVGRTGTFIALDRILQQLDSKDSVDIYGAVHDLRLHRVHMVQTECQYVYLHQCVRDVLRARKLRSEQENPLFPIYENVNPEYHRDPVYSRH

`CCOC(=O)C(=CC1=C/C(=C/N(C)C)C(=O)O1)C(=O)OCC` [AGY- 0046293] was tested, and the IC50 (YOP51) was 4.18 µM, the IC50 (T Cell) was 6720 µM and the IC50 (CD45) was 90 µM. The IC50 (PTPB) was 23.2 µM.
